Measured values from patent US10105357B2, “Indication of antibiotic drugs for preparation of cancer inhibition pharmaceutical composition” (LAUNX BIOMEDICAL CO., LTD., priority 2014, dated 2018).
Counter-ions that a name gives are not always drawn. Like-named read-outs stand apart in the source and are kept apart here.

Experiments:
cancer cell lines = experiment: Cell viability analysis (WST-1) on cancer cell lines; assay type: cell-based, human; settings: drug 10 μM, 72 hours, WST-1; Table 3
[1] = tested on: HI650 (Lung Adenocarcinoma); experiment: Cell viability analysis, lung cancer HI650; assay type: cell-based, human; settings: for viability at 10 µM: Homo sapiens
[2] = tested on: A549 (Lung Adenocarcinoma); experiment: Cell viability analysis, lung cancer A549; assay type: cell-based, human; settings: for viability at 10 µM: Homo sapiens, A549
[3] = tested on: AGS (Gastric Adenocarcinoma); experiment: Cell viability analysis, gastric cancer AGS; assay type: cell-based, human; settings: for viability at 10 µM: Homo sapiens
[4] = tested on: MKN-45 (Gastric Adenocarcinoma); experiment: Cell viability analysis, gastric cancer MKN-45; assay type: cell-based, human; settings: for viability at 10 µM: Homo sapiens, MKN-45
[5] = tested on: HepG2 (Hepatocellular Carcinoma); experiment: Cell viability analysis, hepatic cancer HepG2; assay type: cell-based, human; settings: for viability at 10 µM: Homo sapiens, HepG2
[6] = tested on: Hep3B (hepatocellular carcinoma); experiment: Cell viability analysis, hepatic cancer Hep3B; assay type: cell-based, human
[7] = tested on: LoVo (Colorectal Adenocarcinoma); experiment: Cell viability analysis, colon cancer LoVo; assay type: cell-based, human; settings: for viability at 10 µM: Homo sapiens, LoVo
[8] = tested on: A375 (Amelanotic Melanoma); experiment: Cell viability analysis, skin cancer A375; assay type: cell-based, human; settings: for viability at 10 µM: Homo sapiens
[9] = tested on: BCC (basal cell carcinoma); experiment: Cell viability analysis, skin cancer BCC; assay type: cell-based, human
[10] = tested on: HeLa (Cervix Adenocarcinoma); experiment: Cell viability analysis, cervical cancer HeLa; assay type: cell-based, human; settings: for viability at 10 µM: Homo sapiens, HeLa
[11] = tested on: C-33A (Cervical carcinoma); experiment: Cell viability analysis, cervical cancer C-33A; assay type: cell-based, human
[12] = tested on: PC3 (p53−) (Prostate Adenocarcinoma); experiment: Cell viability analysis, prostate cancer PC3; assay type: cell-based, human; settings: for viability at 10 µM: Homo sapiens
[13] = tested on: TSGH-8301 (Urinary Bladder Carcinoma); experiment: Cell viability analysis, bladder cancer TSGH-8301; assay type: cell-based, human; settings: for viability at 10 µM: Homo sapiens
T24 = experiment: Cell viability analysis, bladder cancer T24; assay type: cell-based, human
[14] = tested on: MCF7 (Mammary Gland, Adenocarcinoma); experiment: Cell viability analysis, breast cancer MCF7; assay type: cell-based, human; settings: for viability at 10 µM: Homo sapiens
[15] = tested on: MDA-MB-231 (Mammary Gland, Adenocarcinoma); experiment: Cell viability analysis, breast cancer MDA-MB-231; assay type: cell-based, human
BxPC-3 = experiment: Cell viability analysis, pancreatic cancer BxPC-3; assay type: cell-based, human
AsPC-1 = experiment: Cell viability analysis, pancreatic cancer AsPC-1; assay type: cell-based, human
NIH: OVCAR-3 = experiment: Cell viability analysis, ovarian cancer NIH: OVCAR-3; assay type: cell-based, human
TOV-21G = experiment: Cell viability analysis, ovarian cancer TOV-21G; assay type: cell-based, human
[16] = tested on: SAS (Tongue squamous cell carcinoma); experiment: Cell viability analysis, tongue cancer SAS; assay type: cell-based, human
U-2OS = experiment: Cell viability analysis, osteosarcoma U-2OS; assay type: cell-based, human
[17] = tested on: 786-O (Renal adenocarcinoma); experiment: Cell viability analysis, renal cancer 786-O; assay type: cell-based, human
[18] = tested on: HCT116 (p53+) (Colorectal Carcinoma)

SMILES: CN(C)C(=O)C(CCN1CCC(O)(c2ccc(Cl)cc2)CC1)(c1ccccc1)c1ccccc1 [Loperamide hydrochloride]
- inhibition effect on different cancer cell lines (cancer cell lines): significant inhibition effect
- viability at 10 µM ([1]; NCI-H1650, 72 h, H1650, repeated experiment, read-out: The results of antibiotic drug inhibiting cancer cell lines (cell viability analysis), H1650): 41.3%
- viability at 10 µM ([1]; NCI-H1650, drug 10 μM, 72 hours, WST-1, OD450 nm, read-out: cell viability (survival rate), H1650): 66.7%
- viability at 10 µM ([2]; 72 h, repeated experiment, read-out: The results of antibiotic drug inhibiting cancer cell lines (cell viability analysis), A549): 26.2%
- viability at 10 µM ([2]; drug 10 μM, 72 hours, WST-1, OD450 nm, read-out: cell viability (survival rate), A549): 104%
- viability at 10 µM ([3]; 72 h, AGS, repeated experiment, read-out: The results of antibiotic drug inhibiting cancer cell lines (cell viability analysis), AGS): 22.2%
- viability at 10 µM ([3]; drug 10 μM, 72 hours, WST-1, OD450 nm, read-out: cell viability (survival rate), AGS): 57.3%
- viability at 10 µM ([4]; 72 h, repeated experiment, read-out: The results of antibiotic drug inhibiting cancer cell lines (cell viability analysis), MKN-45): 61.5%
- viability at 10 µM ([4]; drug 10 μM, 72 hours, WST-1, OD450 nm, read-out: cell viability (survival rate), MKN-45): 64.3%
- viability at 10 µM ([5]; 72 h, repeated experiment, read-out: The results of antibiotic drug inhibiting cancer cell lines (cell viability analysis), HepG2): 35.8%
- viability at 10 µM ([5]; drug 10 μM, 72 hours, WST-1, OD450 nm, read-out: cell viability (survival rate), HepG2): 103%
- viability at 10 µM ([6]; Homo sapiens, Hep3B, 72 h, read-out: The results of antibiotic drug inhibiting cancer cell lines (cell viability analysis), Hep3B): 50.2%
- viability at 10 µM ([7]; 72 h, repeated experiment, read-out: The results of antibiotic drug inhibiting cancer cell lines (cell viability analysis), LoVo): 49.3%
- viability at 10 µM ([7]; drug 10 μM, 72 hours, WST-1, OD450 nm, read-out: cell viability (survival rate), LoVo): 64.8%
- viability at 10 µM ([8]; A-375, 72 h, A375, repeated experiment, read-out: The results of antibiotic drug inhibiting cancer cell lines (cell viability analysis), A375): 34.3%
- viability at 10 µM ([8]; A-375, drug 10 μM, 72 hours, WST-1, OD450 nm, read-out: cell viability (survival rate), A375): 58.8%
- viability at 10 µM ([9]; Homo sapiens, 72 h, read-out: The results of antibiotic drug inhibiting cancer cell lines (cell viability analysis), BCC): 51.5%
- viability at 10 µM ([10]; 72 h, repeated experiment, read-out: The results of antibiotic drug inhibiting cancer cell lines (cell viability analysis), HeLa): 36.8%
- viability at 10 µM ([10]; drug 10 μM, 72 hours, WST-1, OD450 nm, read-out: cell viability (survival rate), HeLa): 73%
- viability at 10 µM ([11]; Homo sapiens, C-33-A, 72 h, read-out: The results of antibiotic drug inhibiting cancer cell lines (cell viability analysis), C-33A): 39.6%
- viability at 10 µM ([12]; 72 h, PC-3, repeated experiment, read-out: The results of antibiotic drug inhibiting cancer cell lines (cell viability analysis), PC-3): 41.6%
- viability at 10 µM ([12]; drug 10 μM, 72 hours, WST-1, OD450 nm, read-out: cell viability (survival rate), PC3): 64.7%
- viability at 10 µM ([13]; 72 h, TSGH-8301, repeated experiment, read-out: The results of antibiotic drug inhibiting cancer cell lines (cell viability analysis), TSGH-8301): 42.9%
- viability at 10 µM ([13]; drug 10 μM, 72 hours, WST-1, OD450 nm, read-out: cell viability (survival rate), TSGH): 42.7%
- viability at 10 µM (T24; Homo sapiens, T-24, 72 h, read-out: The results of antibiotic drug inhibiting cancer cell lines (cell viability analysis), T24): 73.5%
- viability at 10 µM ([14]; MCF7, 72 h, MCF-7, repeated experiment, read-out: The results of antibiotic drug inhibiting cancer cell lines (cell viability analysis), MCF-7): 36.2%
- viability at 10 µM ([14]; MCF7, drug 10 μM, 72 hours, WST-1, OD450 nm, read-out: cell viability (survival rate), MCF7): 78.9%
- viability at 10 µM ([15]; Homo sapiens, MDA-MB-231, 72 h, read-out: The results of antibiotic drug inhibiting cancer cell lines (cell viability analysis), MDA-MB231): 72.5%
- viability at 10 µM (BxPC-3; Homo sapiens, BXPC-3, 72 h, read-out: The results of antibiotic drug inhibiting cancer cell lines (cell viability analysis), BxPC-3): 35.7%
- viability at 10 µM (AsPC-1; Homo sapiens, ASPC1, 72 h, read-out: The results of antibiotic drug inhibiting cancer cell lines (cell viability analysis), AsPC-1): 47.5%
- viability at 10 µM (NIH: OVCAR-3; Homo sapiens, OVCAR-3, 72 h, read-out: The results of antibiotic drug inhibiting cancer cell lines (cell viability analysis), NIH-OVCAR-3): 75.5%
- viability at 10 µM (TOV-21G; Homo sapiens, TOV21G, 72 h, read-out: The results of antibiotic drug inhibiting cancer cell lines (cell viability analysis), TOV-21G): 24.2%
- viability at 10 µM ([16]; Homo sapiens, 72 h, read-out: The results of antibiotic drug inhibiting cancer cell lines (cell viability analysis), SAS): 31.8%
- viability at 10 µM (U-2OS; Homo sapiens, U2OS, 72 h, read-out: The results of antibiotic drug inhibiting cancer cell lines (cell viability analysis), U2OS): 32%
- viability at 10 µM ([17]; Homo sapiens, 786-0, 72 h, read-out: The results of antibiotic drug inhibiting cancer cell lines (cell viability analysis), 786-O): 40.9%
- viability [18]: 47.3%

SMILES: CC1(C)[C@@H](O[C@H]2O[C@H](C(=O)O)[C@@H](O)[C@H](O)[C@H]2O[C@@H]2O[C@H](C(=O)O)[C@@H](O)[C@H](O)[C@H]2O)CC[C@]2(C)[C@H]3C(=O)C=C4[C@@H]5C[C@@](C)(C(=O)O)CC[C@]5(C)CC[C@@]4(C)[C@]3(C)CC[C@@H]12 [Ammonium Glycyrrhizinate (AMGZ), Ammonium Glycyrrhizinate]
- inhibition effect on different cancer cell lines (cancer cell lines): significant inhibition effect
- The results of antibiotic drug inhibiting cancer cell lines (cell viability analysis), H1650 [1]: 76.88
- The results of antibiotic drug inhibiting cancer cell lines (cell viability analysis), A549 [2]: 83.55
- The results of antibiotic drug inhibiting cancer cell lines (cell viability analysis), AGS [3]: 109.2
- The results of antibiotic drug inhibiting cancer cell lines (cell viability analysis), MKN-45 [4]: 96.41
- The results of antibiotic drug inhibiting cancer cell lines (cell viability analysis), HepG2 [5]: 119.7
- The results of antibiotic drug inhibiting cancer cell lines (cell viability analysis), Hep3B [6]: 102.1
- The results of antibiotic drug inhibiting cancer cell lines (cell viability analysis), LoVo [7]: 100.4
- The results of antibiotic drug inhibiting cancer cell lines (cell viability analysis), A375 [8]: 100.5
- The results of antibiotic drug inhibiting cancer cell lines (cell viability analysis), BCC [9]: 93.09
- The results of antibiotic drug inhibiting cancer cell lines (cell viability analysis), HeLa [10]: 103.4
- The results of antibiotic drug inhibiting cancer cell lines (cell viability analysis), C-33A [11]: 108.4
- The results of antibiotic drug inhibiting cancer cell lines (cell viability analysis), PC-3 [12]: 120.7
- The results of antibiotic drug inhibiting cancer cell lines (cell viability analysis), TSGH-8301 [13]: 105.2
- The results of antibiotic drug inhibiting cancer cell lines (cell viability analysis), T24 (T24): 107.9
- The results of antibiotic drug inhibiting cancer cell lines (cell viability analysis), MCF-7 [14]: 69.06
- The results of antibiotic drug inhibiting cancer cell lines (cell viability analysis), MDA-MB231 [15]: 98.74
- The results of antibiotic drug inhibiting cancer cell lines (cell viability analysis), BxPC-3 (BxPC-3): 102.8
- The results of antibiotic drug inhibiting cancer cell lines (cell viability analysis), AsPC-1 (AsPC-1): 100.6
- The results of antibiotic drug inhibiting cancer cell lines (cell viability analysis), NIH-OVCAR-3 (NIH: OVCAR-3): 101
- The results of antibiotic drug inhibiting cancer cell lines (cell viability analysis), TOV-21G (TOV-21G): 74.39
- The results of antibiotic drug inhibiting cancer cell lines (cell viability analysis), SAS [16]: 83.22
- The results of antibiotic drug inhibiting cancer cell lines (cell viability analysis), U2OS (U-2OS): 78.97
- The results of antibiotic drug inhibiting cancer cell lines (cell viability analysis), 786-O [17]: 102.9
- viability [18]: 93.4%
